Assay results reported in patent US9353157B2 (priority 2007, dated 2016).
pIC50: −log10 of the molar value. Values joined by “and” are separate entries in the source; they are usually repeats but may differ in a detail not shown here. Identical values can stand only once. Ends that are not written are not given here.

Assays:
influenza A virus = assay: Plaque reduction / virus infectivity assays, influenza A virus (strain not specified); type: cell-based; conditions: for pIC50: normal-sized plaques, read-out: potency in virus infectivity assays, normal-sized plaques
Procedure: (§1) Using an immunoplaque assay with AVICEL® microcrystalline cellulose as the overlay (Matrosovich et al., 2006), plaques are detected by fixing the monolayers and staining with a specific antibody to the influenza virus nucleoprotein. In the peptide inhibition assay, peptide is preincubated with about 100 plaque forming units (pfu) of the virus for approximately 1 hour, then used to infect the monolayers. Two conditions were used for the incubation: (1) standard condition in which the peptide is included in the overlay at the same concentration that was used in the preincubation step, or (2) a condition in which the peptide is not included in the overlay.
(§2) F3 was evaluated for inhibition of multiple subtypes of influenza A viruses utilizing Madin-Darby Canine Kidney (“MDCK”) cell plaque assays performed using the A/WSN/33 (H1N1) and A/Udorn/72 (H3N2) subtypes of influenza A virus. Dilutions of 50 μM to 2.5 μM of F3 and the randomly scrambled control peptide (SEQ ID NO: 14) were used to evaluate the effects of these peptides on viral infectivity. Six dilutions of F3 and of the control peptide were tested against the H1N1 viral subtype; and another six dilutions of each peptide were tested against the H3N2 viral subtype.

[1] = system: influenza A/PR/8/34 (H1N1); assay: Inhibition of influenza virus-induced hemagglutination, A/PR/8/34; type: cell-based; conditions: for concentration inhibiting influenza virus-induced hemagglutination: optimal numbers of red blood cells and concentrations of virus
Procedure: Studies have been conducted with various influenza strains to better understand the mechanism of action of the peptides of the invention, e.g., to determine which step in the viral replication cycle is inhibited by F3, F1, and related influenza virus inhibitory peptides. At optimal numbers of red blood cells and concentrations of influenza A/PR/8/34 (H1N1), both F3 and F1 inhibited influenza virus-induced hemagglutination at about 10 μM concentrations.

[2] = system: H3N2 influenza A/Cal/07/04; design: species or system ferret; conditions: in vivo; for ferrets with significant/severe respiratory distress (high fever, sneezing): 0.3 mg/kg
influenza A/Cal/07/04 = system: influenza A/Cal/07/04; design: species or system ferret; conditions: in vivo; for ferrets with significant respiratory distress, high fever, sneezing / signs of influenza: 0.3 mg/kg
[3] = system: recombinant H5N1 influenza virus
[4] = system: influenza B (B/Shanghai/361/2002)
[5] = system: influenza B (B/Shanghai/10/2003)
H1N1 influenza A virus = assay: MDCK cell immunoplaque / plaque reduction assay, H1N1; type: cell-based; conditions: H1 influenza A virus subtype
Procedure: as §1, §2
(§3) At low nM concentrations (<10 nM) for condition (1), or low μM ([…]) for condition (2), the presence of “mini-plaques” were apparent.

H3N2 influenza A virus = assay: MDCK cell immunoplaque / plaque reduction assay, H3N2; type: cell-based; conditions: H3 influenza A virus subtype
Procedure: as §1, §2, §3

VEDTKIDLWSYNAELL-NH2 [F3] was tested, and the anti-viral properties (influenza A virus) was “potent anti-viral properties”, the “inhibition in plaque reduction assays” value (influenza A virus) was “picomolar inhibition” and the “concentration at which mini-plaques were apparent” value (influenza A virus; condition (1): peptide included in the overlay) was less than 10 nM. The pIC50 (influenza A virus) was roughly 9.70, the “concentration inhibiting influenza virus-induced hemagglutination” value [1] was “about 10 μM” and the “clinical signs of influenza” value [2] was “no clinical signs of influenza”. The “ferrets with very mild respiratory signs with slight fever” value [2] was 2/5 and 1/6, the “ferrets with significant/severe respiratory distress (high fever, sneezing)” value [2] was “none” and the “animals that developed mild signs of influenza” value (influenza A/Cal/07/04) was “two”. For the same substance, the “lung presentation (gross pathology)” value (influenza A/Cal/07/04) was “normal lung presentations”, the “pathological responses (respiratory distress, nasal discharge, activity), FIG. 6” value (influenza A/Cal/07/04) was “significantly reduced pathological responses” and the “reduction of peak titers of influenza virus in nasal washes” value (influenza A/Cal/07/04) was “greater than 2.0 log10”. The “reduction of peak titers of influenza virus in the lungs” value (influenza A/Cal/07/04) was “greater than 6.0 log10”, the “spread of the virus to the lower respiratory tract and to other organs” value (influenza A/Cal/07/04) was “effectively blocked” and the “tissue pathology (histopathology)” value (influenza A/Cal/07/04) was “markedly reduced pathology”. The “ferrets with significant respiratory distress, high fever, sneezing / signs of influenza” value (influenza A/Cal/07/04) was “none”, the pIC50 [3] was greater than 8.30 and the pIC50 [4] was greater than 8.30. The pIC50 [5] was greater than 8.30.

For VDDGFLDIWTYNAELLVLL [F1], the “antiviral activity in plaque assays” value (H1N1 influenza A virus) was “potent (picomolar)”, the “antiviral activity in plaque assays” value (H3N2 influenza A virus) was “potent (picomolar)” and the pIC50 (influenza A virus) was roughly 9.70. For the same substance, the “concentration inhibiting influenza virus-induced hemagglutination” value [1] was “about 10 μM”.

In the case of “SWLVNKIYLTDDEVEL (Scrambled version of residues 84-99 of influenza A/H3 HA2) [scrambled control peptide, reference compound]”, the anti-viral properties (influenza A virus) was “no discernable anti-viral properties”, the “inhibition of influenza A virus plaque formation” value (influenza A virus; under any condition (peptide in overlay or not)) was “did not inhibit” and the inhibition of hemagglutination ([1]; at any concentration) was “did not inhibit”. For the same substance, the “ferrets displaying significant nasal discharge” value [2] was 100%, the “ferrets presenting with lethargy” value [2] was 50% and the “ferrets with significant/severe respiratory distress (high fever, sneezing)” value [2] was “all”. For the same substance, the “lung presentation (gross pathology)” value (influenza A/Cal/07/04) was “evidence of inflammation”, the “tissue pathology (histopathology)” value (influenza A/Cal/07/04) was “infiltrations, bronchial inflammation, with bronchial exudates” and the “ferrets with significant respiratory distress, high fever, sneezing / signs of influenza” value (influenza A/Cal/07/04) was “all 12”.
